Laboratory results from ChEMBL document CHEMBL1201862, “PubChem BioAssay data set” (2004).
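Following 48 hours of exposure in 96-well plates, responses at five concentrations were used to interpolate endpoints linearly. Abbreviation: GI50, concentration required for 50% inhibition of growth.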 Calls of active or inactive are those of the source. Rule as the data show it: active = GI50 up to about 1.1 µM and inactive = higher.

Experiments:
Assay in all cases: inhibition of tumour cell growth, NCI panel, 48 h
786-0 = tested on: 786-0
CAKI-1 = tested on: CAKI-1
NCI-H460 = tested on: NCI-H460
HT-29 = tested on: HT-29
SK-MEL-5 = tested on: SK-MEL-5
UACC-257 = tested on: UACC-257
SN12C = tested on: SN12C
A549 = tested on: A549
SNB-19 = tested on: SNB-19
CCRF-CEM = tested on: CCRF-CEM
HOP-92 = tested on: HOP-92
LOX IMVI = tested on: LOX IMVI
M14 = tested on: M14
UO-31 = tested on: UO-31
HCC 2998 = tested on: HCC 2998
Hs-578T = tested on: Hs-578T
OVCAR-8 = tested on: OVCAR-8
PC-3 = tested on: PC-3
NCI/ADR-RES = tested on: NCI/ADR-RES
SK-OV-3 = tested on: SK-OV-3
KM12 = tested on: KM12
A498 = tested on: A498
COLO 205 = tested on: COLO 205
MDA-N = tested on: MDA-N
MDA-MB-231 = tested on: MDA-MB-231
U-251 = tested on: U-251
OVCAR-5 = tested on: OVCAR-5
RPMI-8226 = tested on: RPMI-8226
SK-MEL-28 = tested on: SK-MEL-28
BT-549 = tested on: BT-549
K562 = tested on: K562
MOLT-4 = tested on: MOLT-4
SF-295 = tested on: SF-295
Malme-3M = tested on: Malme-3M
DU-145 = tested on: DU-145
MCF7 = tested on: MCF7
NCI-H522 = tested on: NCI-H522
SF-539 = tested on: SF-539
OVCAR-4 = tested on: OVCAR-4
NCI-H226 = tested on: NCI-H226
NCI-H23 = tested on: NCI-H23
SF-268 = tested on: SF-268
OVCAR-3 = tested on: OVCAR-3
RXF 393 = tested on: RXF 393
MDA-MB-435 = tested on: MDA-MB-435
HCT-116 = tested on: HCT-116
UACC-62 = tested on: UACC-62
HOP-62 = tested on: HOP-62
ACHN = tested on: ACHN
HCT-15 = tested on: HCT-15
T47D = tested on: T47D
SW-620 = tested on: SW-620
EKVX = tested on: EKVX
SR = tested on: SR
IGROV-1 = tested on: IGROV-1
SK-MEL-2 = tested on: SK-MEL-2
SNB-75 = tested on: SNB-75
TK-10 = tested on: TK-10
HL-60 = tested on: HL-60

With `COc1ccc(C)c2c1N[C@](C)([C@]1(C)Nc3c(OC)ccc(C)c3C1=O)C2=O` the GI50 (786-0) was > 100 µM (inactive), the GI50 (CAKI-1) was > 100 µM (inactive) and the GI50 (NCI-H460) was > 100 µM (inactive). The GI50 (HT-29) was > 100 µM (inactive), the GI50 (SK-MEL-5) was > 100 µM (inactive) and the GI50 (UACC-257) was > 100 µM (inactive). The GI50 (SN12C) was > 100 µM (inactive), the GI50 (A549) was > 100 µM (inactive) and the GI50 (SNB-19) was 68.9 µM (inactive). The GI50 (CCRF-CEM) was > 100 µM (inactive), the GI50 (HOP-92) was 38 µM (inactive) and the GI50 (LOX IMVI) was > 100 µM (inactive). For the same compound, the GI50 (M14) was > 100 µM (inactive), the GI50 (UO-31) was > 100 µM (inactive) and the GI50 (HCC 2998) was > 100 µM (inactive). For the same compound, the GI50 (Hs-578T) was 39.3 µM (inactive), the GI50 (OVCAR-8) was 49.4 µM (inactive) and the GI50 (PC-3) was > 100 µM (inactive). For the same compound, the GI50 (NCI/ADR-RES) was > 100 µM (inactive), the GI50 (SK-OV-3) was > 100 µM (inactive) and the GI50 (KM12) was 76.9 µM (inactive). For the same compound, the GI50 (A498) was > 100 µM (inactive), the GI50 (COLO 205) was > 100 µM (inactive) and the GI50 (MDA-N) was > 100 µM (inactive). For the same compound, the GI50 (MDA-MB-231) was > 100 µM (inactive), the GI50 (U-251) was > 100 µM (inactive) and the GI50 (OVCAR-5) was > 100 µM (inactive). The GI50 (RPMI-8226) was > 100 µM (inactive), the GI50 (SK-MEL-28) was > 100 µM (inactive) and the GI50 (BT-549) was > 100 µM (inactive). For the same compound, the GI50 (K562) was > 100 µM (inactive), the GI50 (MOLT-4) was > 100 µM (inactive) and the GI50 (SF-295) was 41.4 µM (inactive). The GI50 (Malme-3M) was > 100 µM (inactive), the GI50 (DU-145) was > 100 µM (inactive) and the GI50 (MCF7) was > 100 µM (inactive). For the same compound, the GI50 (NCI-H522) was > 100 µM (inactive), the GI50 (SF-539) was > 100 µM (inactive) and the GI50 (OVCAR-4) was > 100 µM (inactive). The GI50 (NCI-H226) was > 100 µM (inactive), the GI50 (NCI-H23) was > 100 µM (inactive) and the GI50 (SF-268) was 51.6 µM (inactive). The GI50 (OVCAR-3) was > 100 µM (inactive), the GI50 (RXF 393) was > 100 µM (inactive) and the GI50 (MDA-MB-435) was 44.7 µM (inactive). For the same compound, the GI50 (HCT-116) was > 100 µM (inactive), the GI50 (UACC-62) was > 100 µM (inactive) and the GI50 (HOP-62) was 94.4 µM (inactive). For the same compound, the GI50 (ACHN) was > 100 µM (inactive), the GI50 (HCT-15) was > 100 µM and the GI50 (T47D) was > 100 µM (inactive). For the same compound, the GI50 (SW-620) was > 100 µM (inactive), the GI50 (EKVX) was > 100 µM (inactive) and the GI50 (SR) was > 100 µM (inactive). The GI50 (IGROV-1) was > 100 µM (inactive) and the GI50 (SK-MEL-2) was > 100 µM (inactive).
For `Cc1c2c(n(CCc3ccc(Cl)cc3)c1C)NC(c1ccccc1)C(C#N)S2(=O)=O` (centres undefined), the GI50 (786-0) was 32.3 µM (inactive), the GI50 (CAKI-1) was > 100 µM (inactive) and the GI50 (NCI-H460) was 44.1 µM (inactive). The GI50 (HT-29) was 11.9 µM (inactive), the GI50 (SK-MEL-5) was 3.95 µM (inactive) and the GI50 (UACC-257) was 58.6 µM (inactive). The GI50 (SN12C) was > 72.1 µM (inactive), the GI50 (A549) was 22.5 µM (inactive) and the GI50 (SNB-19) was > 100 µM (inactive). For the same compound, the GI50 (CCRF-CEM) was 2.08 µM (inactive), the GI50 (HOP-92) was 17.5 µM (inactive) and the GI50 (LOX IMVI) was 24.5 µM (inactive). The GI50 (M14) was 27.2 µM (inactive), the GI50 (UO-31) was 13.9 µM (inactive) and the GI50 (HCC 2998) was > 100 µM (inactive). The GI50 (SNB-75) was 44.7 µM (inactive), the GI50 (Hs-578T) was 26.1 µM (inactive) and the GI50 (OVCAR-8) was 47 µM (inactive). The GI50 (PC-3) was 19.6 µM (inactive), the GI50 (NCI/ADR-RES) was > 63 µM (inactive) and the GI50 (SK-OV-3) was > 90.6 µM (inactive). The GI50 (KM12) was 18.3 µM (inactive), the GI50 (A498) was > 85.7 µM (inactive) and the GI50 (COLO 205) was 8.36 µM (inactive). For the same compound, the GI50 (TK-10) was > 100 µM (inactive), the GI50 (MDA-N) was 19.9 µM (inactive) and the GI50 (MDA-MB-231) was 11.5 µM (inactive). The GI50 (U-251) was 38.2 µM (inactive), the GI50 (OVCAR-5) was > 100 µM (inactive) and the GI50 (RPMI-8226) was 3.51 µM (inactive). For the same compound, the GI50 (SK-MEL-28) was > 76.6 µM (inactive), the GI50 (BT-549) was 37 µM (inactive) and the GI50 (K562) was 5.14 µM (inactive). For the same compound, the GI50 (MOLT-4) was 3.24 µM (inactive), the GI50 (SF-295) was > 53.5 µM (inactive) and the GI50 (Malme-3M) was 20.5 µM (inactive). The GI50 (DU-145) was > 60 µM (inactive), the GI50 (MCF7) was 5.14 µM (inactive) and the GI50 (NCI-H522) was 11.7 µM (inactive). For the same compound, the GI50 (SF-539) was 34.8 µM (inactive), the GI50 (OVCAR-4) was > 70.1 µM (inactive) and the GI50 (NCI-H226) was > 59.7 µM (inactive). For the same compound, the GI50 (NCI-H23) was > 47.9 µM (inactive), the GI50 (SF-268) was 40.2 µM (inactive) and the GI50 (OVCAR-3) was > 91.2 µM (inactive). The GI50 (MDA-MB-435) was 11.1 µM (inactive), the GI50 (HL-60) was 7 µM (inactive) and the GI50 (HCT-116) was 15.2 µM (inactive). The GI50 (UACC-62) was 36.6 µM (inactive), the GI50 (HOP-62) was > 79.4 µM (inactive) and the GI50 (ACHN) was > 100 µM (inactive). For the same compound, the GI50 (HCT-15) was > 48 µM, the GI50 (T47D) was 17.9 µM (inactive) and the GI50 (SW-620) was > 45.9 µM (inactive). The GI50 (EKVX) was 31.3 µM (inactive), the GI50 (SR) was 3.22 µM (inactive) and the GI50 (IGROV-1) was 17.2 µM (inactive). The GI50 (SK-MEL-2) was 22.4 µM (inactive).
